B1: calgranulin A: calcium-binding protein with a molecular weight of about 8 kD; SEQ ID NOS 1 and 3 (protein, listed as Homo sapiens)
chain: MLTELEKALNSIIDVYHKYSLIKGNFHAVYRDDLKKLLETECPQYIRKKGADVWFKELDINTDGAVNFQEFLILVIKMGVAAHKKSHEESHKE
B2: calgranulin B: calcium-binding protein with a molecular weight of about 14 kD; SEQ ID NOS 2 and 4 (protein, listed as Homo sapiens)
chain: MTCKMSQLERNIETIINTFHQYSVKLGHPDTLNQGEFKELVRKDLQNFLKKENKNEKVIEHIMEDLDTNADKQLSFEEFIMLMARLTWASHEKMHEGDEGPGHHHKPGLGEGTP

What was measured:
[1] = test system: neutrophils; assay: Screening of samples in calgranulin-stimulated elastase secretion from permeabilized neutrophils (Example 3); assay type: cell-based, human; settings: sample 30 μM; for Amount of secretion (%): elastase, control without sample = 100%, calcium chloride 1 μM plus calgranulin (type and concentration not given); for effect on elastase (granule) secretion from neutrophils, in words: calgranulin A activated system
[2] = test system: human neutrophils; assay: Elastase secretion from permeabilized human neutrophils on addition of calgranulin and calcium chloride (Example 1); assay type: cell-based; settings: 3 μM calgranulin, 1 μM calcium chloride, digitonin-permeabilized neutrophils, 37° C. 5 minutes
Procedure: A neutrophil suspension was prepared from blood collected from human vein according to the method described in Biological Chemistry Experiment Lecture, second series, No. 8, Blood, Vol. 2, 679-685). The neutrophil suspension was adjusted to a concentration of 1×10^7 cells/ml in a plastic test tube using a permeabilized buffer (PB) (30 mM HEPES, 100 mM KCl, 20 mM NaCl, 1 mM EGTA, pH 7.0) and incubated at 37° C. for 10 minutes. Digitonin (Sigma company) was added to the neutrophil suspension to a final concentration of 5-7.5 μg/ml and the mixture was incubated at, 37° C. for 15 minutes. The neutrophil suspension was centrifuged at 1200 rpm for 5 minutes. After discarding supernatant, precipitated neutrophils were re-suspended in PB to prepare a permeabilized neutrophil suspension (cell concentration: 1×10^7/ml).
The permeabilized neutrophil suspension was added to a 96-well immunoplate, 200 μl per well, and incubated for at 37° C. 15 minutes. […]
The 96-well immunoplate was centrifuged at 1200 rpm for one minute at 4° C. using a centrifugation container for immunoplates. […] Then, absorbance at 405 nm was measured using a microplate reader.

[3] = test system: human neutrophils; assay: Lactoferrin secretion from permeabilized human neutrophils on addition of calgranulin and calcium chloride, ELISA (Example 2); assay type: cell-based; settings: 3 μM calgranulin, 1 μM calcium chloride, digitonin-permeabilized neutrophils, 37° C. 5 minutes
Procedure: A neutrophil suspension was prepared from blood collected from human vein according to the method described in Biological Chemistry Experiment Lecture, second series, No. 8, Blood, Vol. 2, 679-685). The neutrophil suspension was adjusted to a concentration of 1×10^7 cells/ml using PB in a plastic test tube and incubated at 37° C. for 10 minutes. Digitonin (Sigma company) was added to the neutrophil suspension to a final concentration of 5 μg/ml and the mixture was incubated at 37° C. for 15 minutes.
The neutrophil suspension was centrifuged at 1200 rpm for 5 minutes. After supernatant was discarded, precipitated neutrophils were re-suspended in PB to prepare a permeabilized neutrophil suspension (cell concentration: 1×10^7 cells/ml). The permeabilized neutrophil suspension was added to a 96-well immunoplate, 200 μl per well, and incubated at 37° C. for 15 minutes. Next, an aqueous solution of calcium chloride (final concentration: 1 μM) and calgranulin A, calgranulin B, or a equimolar mixture of calgranulin A and calgranulin B (each to a final concentration of 0 μM, 0.3 μM, 1 μM, or 3 μM) were added, and the resulting mixtures were incubated at 37° C. for 5 minutes. The 96-well immunoplate was centrifuged at 1200 rpm for one minute at 4° C. ELISA-kit (OXIS Co.) was used for the determination of lactoferrin. […]

Molecule | Amount of secretion (%) [1] [%] | effect on elastase (granule) secretion from neutrophils, in words [1] | amount of elastase secretion, assuming secretion in the absence of calgranulin is 1 [2] | amount of lactoferrin secretion, assuming secretion in the absence of calgranulin is 1 [3]
COc1ccc(CN(CCCCCCCN2CCNCC2)c2ccc(OC)cc2)cc1.Cl.Cl.Cl [Compound 1, N-(4-methoxybenzyl)-N-(4-methoxyphenyl)-7-piperazinylheptyl amine trihydrochloride] | 61 | remarkably controlled granule secretion | – | –
COc1ccc(N(CCCCCCCN2CCNCC2)Cc2ccccc2)cc1.Cl.Cl.Cl [Compound 2, N-benzyl-N-(4-methoxyphenyl)-7-piperazinylheptylamine trihydrochloride] | 51 | remarkably controlled granule secretion | – | –
CCCCCCC(CC)=C(c1ccc(O)cc1)c1ccc(O)cc1 [Compound 3, 1,1-(di-4-hydroxyphenyl)-2-ethyl-1-octaene] | 151 | remarkably increased the amount of secretion | – | –
B1 | – | – | about eight | about six
B2 | – | – | about seven | about five
